Test results from patent publication US12409158B2, “Combination therapy for treating cancer” (GONGWIN BIOPHARM CO., LTD, priority 2022, dated 2025).

Legend:
mTOR = experiment: Western blot of mTOR in M5 tumors; assay type: in vivo, BALB/c nude mice; details: FIG. 7A
H520 cells [1] = experiment: H520 lung squamous cell carcinoma xenograft, first experiment; assay type: in vivo, nude-BALB/c mice
Procedure: (§1) Male nude-BALB/c mice at six-weeks of age were obtained from National Laboratory Animal Breeding and Research Center, Taipei, Taiwan. Mice were housed in each cage and provided them with sterile food and water. The mice were maintained under a constant temperature (22±2° C.) and relative humidity (55±5%), with a 12:12 h light: dark cycle. The Institutional Animal Care and Use Committee (IACUC) at the National […] University (IACUC Approval No. 110003) reviewed and approved the study protocol, in which procedures were in accordance with the Guidelines for the Care and Use of Laboratory Animals published by the Taiwanese Ministry of Health and Welfare. Human non-small cell lung carcinoma cell line (H520) was purchased from ATCC Cell Bank. H520 cells were incubated in RPMI 1640 medium (cat no. 61870044; Gibco; Thermo Fisher, Inc) supplemented with 10% fetal bovine serum in an environmental containing 5% CO2 at 37° C. The experimental treatments were commenced after the implanted H520 cells had formed a detectable tumor mass, which was assessed on day 7 after implantation. […] The growth of the tumors was assessed every seven days by measuring their largest and smallest diameters, and calculated their volume according to the following formula: […] […]

S6K1 = experiment: Western blot of S6K1 in M5 tumors; assay type: in vivo, BALB/c nude mice; details: FIG. 7A
ZEB1 = experiment: Quantitative PCR of ZEB1 mRNA in M5 tumors; assay type: in vivo, BALB/c nude mice; details: FIG. 10
A549 cells = experiment: A549 lung adenocarcinoma xenograft; assay type: in vivo, BALB/c nude mice
Procedure: A549 cell line was purchased from ATCC Cell Bank and was cultured in F-12K medium (cat no. ATCC 30-2004) plus 10% fetal bovine serum, at 37° C., 5% CO2. For experiments, cells were grown to 90% confluence. The experimental treatments were commenced after the implanted A549 cells had formed a detectable tumor mass, which was assessed on day 7 after implantation. Briefly, the mice were anesthetized via intraperitoneal injection of Zoletil (Virbac Taiwan, Taipei, Taiwan), and then subcutaneously injected 100 μl of cell suspension containing 6*10^6 viable A549 cells into right posterior leg. […] All treatments were administered via intraperitoneal injection (IP) or intratumoral injection (IT). The control group (Group 1) received normal saline daily, while the other three treatment groups received their corresponding treatments B.I.W (twice a week) or Q.W (once weekly). The PTS100 group (Group 2) received 330 mg/kg of PTS100 (Gongwin Biopharm Holding, Taipei, Taiwan). The normal saline+pemetrexed+Cisplatin group (Group 3) received 100 mg/kg of pemetrexed and 2 mg/kg of cisplatin. The pemetrexed+cisplatin+PTS100 (Group 4, also known as the “combination”) received 100 mg/kg of pemetrexed, 2 mg/kg of cisplatin, and 330 mg/kg of PTS 100. In group 4, when administering in combination, pemetrexed, cisplatin, PTS100 are given at different days, for example, PTS is given at Monday and Thursday, and pemetrexed+cisplatin is given at Wednesday. See Table 4 for the experimental design of the corresponding treatments, dose, injection site, concentration, volume, number of subjects and dosing frequency. The dosage of pemetrexed, cisplatin, and PTS100 were selected such that these drug affects apoptosis, invasion, metastasis, angiogenesis, and the growth signal mechanisms in […] implanted in mice. The growth of the tumors was assessed every seven days by measuring their largest and smallest diameters, and calculated their volume according to the following formula: […] [table]

H520 cells [2] = experiment: H520 lung squamous cell carcinoma xenograft, repeat experiment; assay type: in vivo, nude-BALB/c mice; details: compared to control, FIGS. 13A, 13B
Procedure: as §1

Ki67 = experiment: IHC analysis of Ki67 in M5 tumors; assay type: in vivo, BALB/c nude mice; details: FIGS. 9A and 9B

With `Cc1ccc(S(N)(=O)=O)cc1` [PTS, p-Toluenesulfonamide] the “expression of mTOR” value (mTOR) was “downregulated”, the tumor growth inhibition (H520 cells [1]; PTS100 330 mg/kg IT B.I.W., gemcitabine 160 mg/kg and cisplatin 3 mg/kg IP QW) was 39.2% and the “tumor volume / tumor burden” value (H520 cells [1]; compared to control, FIG. 12A) was “slight decrease”. For the same molecule, the “expression of S6K1” value (S6K1) was “downregulated”, the “ZEB1 mRNA expression” value (ZEB1) was “downregulation” and the “Inhibition (%) (tumor growth inhibition)” value (A549 cells; PTS100 330 mg/kg IT B.I.W., pemetrexed 100 mg/kg and cisplatin 2 mg/kg IP QW) was 84.13%. For the same molecule, the “tumor volume / tumor burden” value (A549 cells; compared to control, FIG. 14A) was “slight decrease”, the tumor weight (A549 cells; compared to the control, FIG. 14B) was “significant decrease” and the “tumor volume / tumor burden” value (H520 cells [2]) was “slight decrease”. The Ki67 expression (Ki67) was “suppressed”.
